Experimental data from PubChem BioAssay AID248 (DTP/NCI, 2004).
Toxic doses and inconclusive results are not listed. Cut-off read from the data, not from the text of the source: active = T/C of 150% or more; inactive = T/C below 125%.

System: L1210 leukemia ip in BDF1 mice, survival T/C
Assay: NCI In Vivo Anticancer Drug Screen. Data for tumor model L1210 Leukemia (intraperitoneal) in B6D2F1 (BDF1) mice
Conditions: endpoint: mean survival time, higher = longer survival
Summary of the method: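 Tumor cells were implanted, animals were treated, and survival was followed. The result divides the treated measurement by the vehicle-control measurement.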

[1] = dose: 100.0 mg/kg/injection, schedule: Q01DX001 (ip), vehicle: saline
[2] = dose: 200.0 mg/kg/injection, schedule: Q01DX001 (ip), vehicle: saline
[3] = dose: 50.0 mg/kg/injection, schedule: Q01DX001 (ip), vehicle: saline

Measured: T/C

CC(C)(C)CCN1C(=O)c2ccccc2C1=O
inactive: [1] 94 % of control | dose: 100.0 mg/kg/injection, schedule: Q01DX009 (ip), vehicle: saline 100 % of control | [2] 92 % of control | dose: 200.0 mg/kg/injection, schedule: Q01DX009 (ip), vehicle: saline 97 % of control | dose: 400.0 mg/kg/injection, schedule: Q01DX001 (ip), vehicle: saline 92 % of control | dose: 400.0 mg/kg/injection, schedule: Q01DX009 (ip), vehicle: saline 97 % of control

O=[N+]([O-])c1ncc[nH]1
inactive: [3] 96 % of control | [1] 98 % of control | [2] 102 % of control

Oc1ccc(/C=N/Nc2nnc(N/N=C/c3ccc(O)cc3O)c3ccccc23)c(O)c1
inactive: dose: 2.5 mg/kg/injection, schedule: Q01DX015 (ip), vehicle: carboxymethylcellulose (CMC) 97 % of control | dose: 5.0 mg/kg/injection, schedule: Q01DX009 (ip), vehicle: saline 104 % of control | dose: 5.0 mg/kg/injection, schedule: Q01DX015 (ip), vehicle: carboxymethylcellulose (CMC) 98 % of control | dose: 10.0 mg/kg/injection, schedule: Q01DX009 (ip), vehicle: saline 109 % of control | dose: 10.0 mg/kg/injection, schedule: Q01DX015 (ip), vehicle: carboxymethylcellulose (CMC) 110 % of control | dose: 19.0 mg/kg/injection, schedule: Q01DX015 (ip), vehicle: carboxymethylcellulose (CMC) 120 % of control | dose: 20.0 mg/kg/injection, schedule: Q01DX009 (ip), vehicle: saline 106 % of control | dose: 32.0 mg/kg/injection, schedule: Q01DX015 (ip), vehicle: carboxymethylcellulose (CMC) 114 % of control | [3] 98 % of control | dose: 100.0 mg/kg/injection, schedule: Q01DX001 (ip), vehicle: carboxymethylcellulose (CMC) 111 % of control | [1] 97 % of control | dose: 200.0 mg/kg/injection, schedule: Q01DX001 (ip), vehicle: carboxymethylcellulose (CMC) 121 % of control | [2] 106 % of control | dose: 600.0 mg/kg/injection, schedule: Q01DX001 (ip), vehicle: carboxymethylcellulose (CMC) 117 % of control

O=C1c2ccccc2C(=O)N1Cc1ccc([N+](=O)[O-])cc1
inactive: dose: 100.0 mg/kg/injection, schedule: Q01DX001 (ip), vehicle: other 96 % of control | dose: 100.0 mg/kg/injection, schedule: Q04DX003 (ip), vehicle: Klucel (hydroxypropylcellulose) (HPC) 103 % of control | dose: 200.0 mg/kg/injection, schedule: Q01DX001 (ip), vehicle: other 87 % of control | dose: 200.0 mg/kg/injection, schedule: Q04DX003 (ip), vehicle: Klucel (hydroxypropylcellulose) (HPC) 101 % of control | dose: 400.0 mg/kg/injection, schedule: Q01DX001 (ip), vehicle: other 95 % of control | dose: 400.0 mg/kg/injection, schedule: Q04DX003 (ip), vehicle: Klucel (hydroxypropylcellulose) (HPC) 97 % of control
